Results on 27 compounds are retold here after US20230203060A1 (GENFLEET THERAPEUTICS (SHANGHAI) INC., priority 2020, published 2023).

Broadly, the IC50 is the concentration that inhibits the measured activity by half.

SMILES strings stand for the structures. Structures can show the parent of a compound that is named as a salt. Where two headings read alike, the source gives them in different places.

Assay [1] deals with KRAS G12C mutant NCI-H358 cells. As to the kind of experiment: Cell proliferation inhibition experiment, 3D spheroid, CellTiter-Glo, NCI-H358. It counts as cell-based, human. To be noted: read-out: H358 IC50. The method in brief:
(§1)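 CellTiter-Glo luminescence after 5 days' compound treatment (3.16-fold series, 0.1% DMSO) of overnight-formed spheroids in 2% FBS medium: H358 seeded at 800 cells/well in RPMI-1640, A549 at 400 cells/well in F-12K. IC50 derived by four-parameter fit of inhibition normalized to DMSO control and blank.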
In general terms: Cellular ATP, detected with luciferase, serves as a proxy for viable cell number.

Assay [2] deals with A549 cells (KRAS G12S mutant). As to the kind of experiment: Cell proliferation inhibition experiment, 3D spheroid, CellTiter-Glo, A549. It counts as cell-based, human. To be noted: read-out: A549 IC50. The method in brief:
as §1

Setting [3] is: Homo sapiens, NCI-H358, 120 h, NCI-H358 (KRAS G12C mutant) 3D spheroid, 5 days with compound, CellTiter-Glo.
Where [4] appears, read: Homo sapiens, A549, 120 h, A549 (KRAS G12S mutant) 3D spheroid, 5 days with compound, CellTiter-Glo.
Where [5] appears, read: NCI-H358 (KRAS G12C mutant) 3D spheroid, 5 days with compound, CellTiter-Glo.
Where [6] appears, read: A549 (KRAS G12S mutant) 3D spheroid, 5 days with compound, CellTiter-Glo.

Consider `C=CC(=O)N1CCN2C(=O)c3c(NC(C)(C)C)nc(-c4c(O)cccc4F)c(Cl)c3OC[C@H]2C1` [Z69, (6aR)-8-acryloyl-1-(tert-butylamino)-4-chloro-3-(2-fluoro-6-hydroxyphenyl)-6,6a,7,8,9,10-hexahydro-12H-pyrazino[2,1-c]pyrido[3,4-f][1,4]oxazepin-12-one], for which the IC50 in assay [1] (setting [3]) was 9 nM; in assay [2] (setting [4]) it was > 5000 nM.
Turning to `C=CC(=O)N1CCN2C(=O)c3c(N4C[C@H](N(C)CCF)CC4(C)C)nc(-c4ccccc4F)c(Cl)c3OC[C@H]2C1` (single isomer, unassigned) [Z660-2], the IC50 in assay [1] (setting [5]) is 10.8 nM; in assay [2] (setting [6]), 9080 nM.
Regarding `C=CC(=O)N1CCN2C(=O)c3c(N4CC(=O)N(C)CC4C)nc(-c4c(O)cccc4F)c(Cl)c3OC[C@H]2C1` (stereo partly drawn) [Z221, (6aR)-8-acryloyl-4-chloro-1-(2,4-dimethyl-5-oxopiperazin-1-yl)-3-(2-fluoro-6-hydroxyphenyl)-6,6a,7,8,9,10-hexahydro-12H-pyrazino[2,1-c]pyrido[3,4-f][1,4]oxazepin-12-one], the IC50 in assay [1] (setting [3]) came out at 3 nM; in assay [2] (setting [4]), 20100 nM.
For `C=CC(=O)N1CCN2C(=O)c3c(N4CC[C@@H]4C)nc(-c4c(O)cccc4F)c(Cl)c3OC[C@H]2C1` [Z68, (6aR)-8-acryloyl-1-((S)-2-methylazetidin-1-yl)-4-chloro-3-(2-fluoro-6-hydroxyphenyl)-6,6a,7,8,9,10-hexahydro-12H-pyrazino[2,1-c]pyrido[3,4-f][1,4]oxazepin-12-one] the same measures were 12 nM and > 5000 nM.
For `C=CC(=O)N1CCN2C(=O)c3c(N4CCOC5(CC5)C4)nc(-c4c(O)cccc4F)c(Cl)c3OC[C@H]2C1` [Z63, (6aR)-8-acryloyl-4-chloro-1-(4-oxa-7-azaspiro[2.5]octan-7-yl)-3-(2-fluoro-6-hydroxyphenyl)-6,6a,7,8,9,10-hexahydro-12H-pyrazino[2,1-c]pyrido[3,4-f][1,4]oxazepin-12-one] the same measures were 14 nM and > 1000 nM.
As to `C=CC(=O)N1CCN2C(=O)c3c(N4CC(=O)N(C)CC4C)nc(-c4c(O)cccc4F)c(Cl)c3OC[C@H]2C1` (single isomer, unassigned) [Z221-2], in assay [1] (setting [5]), the IC50 is 16.8 nM.
For the compound `C=CC(=O)N1CCN2C(=O)c3c(N4CCN(C)C[C@@H]4C)nc(-c4c(O)cccc4Cl)c(Cl)c3OC[C@H]2C1` (single isomer, unassigned) [Z455-2], the figures for the concentration for half-maximal inhibition (IC50) in assay [1] (setting [5]) and in assay [2] (setting [6]) were 3.7 nM and > 10000 nM, respectively.
On to `C=CC(=O)N1CCN2C(=O)c3c(N4CCN(C)[C@H](C)C4)nc(-c4c(O)cccc4F)c(Cl)c3OC[C@H]2C1` [Z235, (6aR)-8-acryloyl-4-chloro-1-((R)-3,4-dimethylpiperazin-1-yl)-3-(2-fluoro-6-hydroxyphenyl)-6,6a,7,8,9,10-hexahydro-12H-pyrazino[2,1-c]pyrido[3,4-f][1,4]oxazepin-12-one], for which the IC50 is 21 nM in assay [1] (setting [3]) and 9480 nM in assay [2] (setting [4]).
With `C=CC(=O)N1CCN2C(=O)c3c(N4CCN(CC)C[C@@H]4C)nc(-c4c(O)cccc4F)c(Cl)c3OC[C@H]2C1` [Z236], the half-inhibitory concentration (IC50) in assay [1] (Homo sapiens, NCI-H358, 120 h) turned out to be 5.8 nM; in assay [2] (Homo sapiens, A549, 120 h) it was 9580 nM.
Regarding `C=CC(=O)N1CCN2C(=O)c3c(N4CC(N(C)C5COC5)CC4(C)C)nc(-c4c(O)cccc4F)c(Cl)c3OC[C@H]2C1` (single isomer, unassigned) [Z331-2], the half-maximal inhibitory concentration (IC50) in assay [1] (setting [5]) was determined as 1.1 nM; in assay [2] (setting [6]) it was 9320 nM.
Regarding `C=CC(=O)N1CCN2C(=O)c3c(N4CCN(C)C[C@@H]4C)nc(-c4c(O)cccc4Cl)c(Cl)c3OC[C@H]2C1` (single isomer, unassigned) [Z455-1], the IC50 worked out at 45.2 nM in assay [1] (setting [5]) and 4180 nM in assay [2] (setting [6]).
On to `C=CC(=O)N1CCN2C(=O)c3c(N4CCNC(C)C4C)nc(-c4c(O)cccc4F)c(Cl)c3OC[C@H]2C1` (stereo partly drawn) [Z308, (6aR)-8-acryloyl-4-chloro-1-(2,3-dimethylpiperazin-1-yl)-3-(2-fluoro-6-hydroxyphenyl)-6,6a,7,8,9, 10-hexahydro-12H-pyrazino[2,1-c]pyrido[3,4-f][1,4]oxazepin-12-one], for which the IC50 in assay [1] (setting [3]) stood at 30 nM.
As for `C=CC(=O)N1CCN2C(=O)c3c(N4CC(N(C)CC(F)F)CC4(C)C)nc(-c4ccccc4F)c(Cl)c3OC[C@H]2C1` (some centres unmarked) [Z659], the half-inhibitory concentration (IC50) in assay [1] (setting [5]) came to 1.8 nM; in assay [2] (setting [6]) it was 5460 nM.
Regarding `C=CC(=O)N1CCN2C(=O)c3c(N4CC(=O)N(C)CC4C)nc(-c4c(O)cccc4F)c(Cl)c3OC[C@H]2C1` (single isomer, unassigned) [Z221-1], the IC50 is 2.7 nM in assay [1] (setting [5]) and > 30000 nM in assay [2] (setting [4]).
Turning to `C=CC(=O)N1CCN2C(=O)c3c(N4C[C@H](N(C)C)CC4(C)C)nc(-c4ccccc4)c(Cl)c3OC[C@H]2C1` (single isomer, unassigned) [Z655-2], the IC50 in assay [1] (setting [5]) stood at 18 nM; in assay [2] (setting [6]) it was 2750 nM.
With `C=CC(=O)N1CCN2C(=O)c3c(N4CCN(C)C(C)C4C)nc(-c4c(O)cccc4F)c(Cl)c3OC[C@H]2C1` (stereo partly drawn) [Z308a, (6aR)-8-acryloyl-4-chloro-3-(2-fluoro-6-hydroxyphenyl)-1-(2,3,4-trimethylpiperazin-1-yl)-6,6a,7,8,9,10-hexahydro-12H-pyrazino[2,1-c]pyrido[3,4-f][1,4]oxazepin-12-one], the IC50 was determined as 4.1 nM in assay [1] (setting [5]) and 7100 nM in assay [2] (setting [6]).
In the case of `C=CC(=O)N1CCN2C(=O)c3c(N4C[C@H](O)C[C@@H]4C)nc(-c4c(O)cccc4F)c(Cl)c3OC[C@H]2C1` [Z259, (6aR)-8-acryloyl-4-chloro-3-(2-fluoro-6-hydroxyphenyl)-1-((2S,4R)-4-hydroxy-2-methylpyrrolidin-1-yl)-6,6a,7,8,9,10-hexahydro-12H-pyrazino[2,1-c]pyrido[3,4-f][1,4]oxazepin-12-one], the IC50 in assay [1] (setting [3]) came to 29 nM.
As to `C=CC(=O)N1CCN2C(=O)c3c(N4CC(N5CCOCC5)CC4(C)C)nc(-c4ccccc4F)c(Cl)c3OC[C@H]2C1` (single isomer, unassigned) [Z468-2], the IC50 was found to be 5 nM in assay [1] (setting [5]) and 4560 nM in assay [2] (setting [6]).
With `C=CC(=O)N1CCN2C(=O)c3c(N4CC(O)CC4(C)C)nc(-c4c(O)cccc4F)c(F)c3OC[C@H]2C1` (stereo partly drawn) [Z256, (6aR)-8-acryloyl-4-fluoro-3-(2-fluoro-6-hydroxyphenyl)-1-(4-hydroxy-2,2-dimethylpyrrolidin-1-yl)-6,6a,7,8,9,10-hexahydro-12H-pyrazino[2,1-c]pyrido[3,4-f][1,4]oxazepin-12-one], the figures for the IC50 in assay [1] (setting [3]) and in assay [2] (setting [4]) were 5 nM and 13900 nM, respectively.
For `C=CC(=O)N1CCN2C(=O)c3c(N4C[C@H](O)CC4(C)C)nc(-c4c(O)cccc4F)c(Cl)c3OC[C@H]2C1` (single isomer, unassigned) [Z82] the same measures were 11 nM and > 1000 nM.
Turning to `C=CC(=O)N1CCN2C(=O)c3c(N4CCN(C)C(C)(C)C4)nc(-c4ccccc4F)c(Cl)c3OC[C@H]2C1` [Z463, (R)-8-acryloyl-4-chloro-3-(2-fluorophenyl)-1-(3,3,4-trimethylpiperazin-1-yl)-6,6a,7,8,9,10-hexahydro-12H-pyrazino[2,1-c]pyrido[3,4-f][1,4]oxazepin-12-one, formate], in assay [1] (Homo sapiens, NCI-H358, 120 h), the IC50 amounted to 39 nM.
As for `C=CC(=O)N1CCN2C(=O)c3c(N4CCN(C)C(C)(C)C4)nc(-c4c(O)cccc4F)c(Cl)c3OC[C@H]2C1` [Z261, (6aR)-8-acryloyl-4-chloro-3-(2-fluoro-6-hydroxyphenyl)-1-(3,3,4-trimethylpiperazin-1-yl)-6,6a,7,8,9,10-hexahydro-12H-pyrazino[2,1-c]pyrido[3,4-f][1,4]oxazepin-12-one], the figures for the IC50 in assay [1] (setting [3]) and in assay [2] (setting [4]) were 6.6 nM and 8890 nM, respectively.
Taken in the same sequence, the figures for `C=CC(=O)N1CCN2C(=O)c3c(N4C[C@@H](O)CC4(C)C)nc(-c4c(O)cccc4F)c(Cl)c3OC[C@H]2C1` (single isomer, unassigned) [Z81] were 1 nM and > 1000 nM.
For `C=CC(=O)N1CCN2C(=O)c3c(N4CCOC5CC54)nc(-c4c(O)cccc4F)c(Cl)c3OC[C@H]2C1` (stereo partly drawn) [Z76, (6aR)-8-acryloyl-4-chloro-1-(2-oxa-5-azabicyclo[4.1.0]heptan-5-yl)-3-(2-fluoro-6-hydroxyphenyl)-6,6a,7,8,9,10-hexahydro-12H-pyrazino[2,1-c]pyrido[3,4-f][1,4]oxazepin-12-one] the same measures were 22 nM and > 1000 nM.
For `C=CC(=O)N1CCN2C(=O)c3c(Nc4c(C)ccnc4C(C)C)nc(-c4c(O)cccc4F)c(Cl)c3OC[C@H]2C1` [Z5, (6aR)-8-acryloyl-4-chloro-3-(2-fluoro-6-hydroxyphenyl)-1-((2-isopropyl-4-methylpyridin-3-yl)amino)-6,6a,7,8,9,10-hexahydro-12H-pyrazino[2,1-c]pyrido[3,4-f][1,4]oxazepin-12-one] the same measures were 31 nM and 4680 nM.
With `C=CC(=O)N1CCN2C(=O)c3c(N(C)c4c(C)ccnc4C(C)C)nc(-c4c(O)cccc4F)c(Cl)c3OC[C@H]2C1` [Z6, (6aR)-8-acryloyl-4-chloro-3-(2-fluoro-6-hydroxyphenyl)-1-((2-isopropyl-4-methylpyridin-3-yl)(methyl)amino)-6,6a,7,8,9,10-hexahydro-12H-pyrazino[2,1-c]pyrido[3,4-f][1,4]oxazepin-12-one], the IC50 is 7 nM in assay [1] (setting [3]) and > 30000 nM in assay [2] (setting [4]).
For `C=CC(=O)N1CCN2C(=O)c3c(NC(C)C)nc(-c4c(O)cccc4F)c(Cl)c3OC[C@H]2C1` [Z75, (6aR)-8-acryloyl-4-chloro-1-(isopropylamino)-3-(2-fluoro-6-hydroxyphenyl)-6,6a,7,8,9,10-hexahydro-12H-pyrazino[2,1-c]pyrido[3,4-f][1,4]oxazepin-12-one] the same measures were 29 nM and > 1000 nM.
